Measurements taken from US6630161B1, “Adjuvant composition and methods for its use” (Ribi Immunochem Research, Inc., priority 1998, dated 2003).

Experiment: Histamine type response after intravenous administration of surfactants
Format: in vivo
Conditions: dogs

Compound	response when administered intravenously
CCCCCCCC/C=C\CCCCCCCC(=O)OCCOCC(OCCO)C1OCC(OCCO)C1OCCO (centres unmarked) [Tween 80]	histamine type response
polysorbate 80	histamine type response
